Each compound was assayed against CYP46A1 (Homo sapiens, UniProt Q9Y6A2) (assay: CYP46A1 Enzyme Assay 2 (testosterone substrate, HPLC-MS)). Conditions: read-out: IC50 (CYP46A1 inhibitory activity).
Type: biochemical
Description: Briefly, in a 384-well plate format, 10 μL per well of an enzyme-substrate mixture of CYP46A1 (5 μM final concentration) and Testosterone ([…] final concentration) were dispensed to wells containing test compound. For CYP46A1 titration, 5 μL per well of serially diluted CYP46A1 (concentrations including 10 μM, 5 μM, and 2.5 μM) and Testosterone (concentration of […]) were dispensed. For Testosterone titration, 5 μL per well of serially diluted Testosterone (concentrations including 10 μM, 5 μM, and 2.5 μM) and CYP46A1 (concentration of 5 μM) were dispensed. The plates were centrifuged at 1000 rpm for 30 seconds, and then sealed and incubated at 37° C. for 30 minutes. The plate was removed from the incubator, and then 10 μL per well of NADPH-generating system were dispensed to initiate the reaction. The plates were incubated at 37° C. for 15 minutes, added with 80 μL per well of 100% methanol consisting 1 ng/ml diclofenac as internal standard, and then transferred for HPLC-MS.

Sequence of CYP46A1 (Q9Y6A2 whole entry): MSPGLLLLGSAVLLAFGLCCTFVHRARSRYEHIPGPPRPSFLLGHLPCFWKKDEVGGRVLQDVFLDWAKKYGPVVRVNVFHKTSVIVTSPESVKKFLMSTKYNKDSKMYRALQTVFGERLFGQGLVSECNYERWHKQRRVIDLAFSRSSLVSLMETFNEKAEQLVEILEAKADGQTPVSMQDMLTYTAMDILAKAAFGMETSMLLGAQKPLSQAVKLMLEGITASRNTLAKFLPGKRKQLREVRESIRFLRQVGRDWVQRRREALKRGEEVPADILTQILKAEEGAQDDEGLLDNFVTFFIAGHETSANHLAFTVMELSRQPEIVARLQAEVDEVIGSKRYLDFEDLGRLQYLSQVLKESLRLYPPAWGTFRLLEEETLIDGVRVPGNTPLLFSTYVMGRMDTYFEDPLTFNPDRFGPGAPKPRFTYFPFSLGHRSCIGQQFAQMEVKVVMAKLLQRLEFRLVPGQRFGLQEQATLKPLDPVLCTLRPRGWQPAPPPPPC

IC50	Structure (SMILES)
< 100 nM	N#CC1(Cc2ccccc2)CCN(C(=O)c2cccnc2-c2ccncn2)CC1 [Compound A31, 4-benzyl-1-(2-(pyrimidin-4-yl)nicotinoyl)piperidine-4-carbonitrile]
< 100 nM	N#CC1(Cc2ccc(F)cc2)CCN(C(=O)c2cc(C(F)(F)F)ccc2-c2ccncn2)CC1 [Compound A227, 4-(4-fluorobenzyl)-1-(2-(pyrimidin-4-yl)-5-(trifluoromethyl)benzoyl)piperidine-4-carbonitrile]
< 100 nM	N#CC1(CCCCc2ccccc2)CCN(C(=O)c2cccnc2-c2ccncc2)CC1 [Compound A67, 1-([2,4′ bipyridine]-3-carbonyl)-4-(4-phenylbutyl)piperidine-4-carbonitrile]
< 100 nM	N#CC1(Cc2ccccc2C2CC2)CCN(C(=O)c2cccnc2-c2ccncn2)CC1 [Compound A214, 4-(2-cyclopropylbenzyl)-1-(2-(pyrimidin-4-yl)nicotinoyl)piperidine-4-carbonitrile]
< 100 nM	C[C@@H](c1ccc(F)cc1F)C1(C#N)CCN(C(=O)c2cccnc2-c2ccncc2)CC1 [Compound A238, (R)-1-([2,4′-bipyridine]-3-carbonyl)-4-(1-(2,4-difluorophenyl)ethyl)piperidine-4-carbonitrile]
> 1000 nM	N#CC1(Cc2cnc(C(F)(F)F)nc2)CCN(C(=O)c2cccnc2-c2ccncn2)CC1 [Compound A239, 1-(2-(pyrimidin-4-yl)nicotinoyl)-4-((2-(trifluoromethyl)pyrimidin-5-yl)methyl)piperidine-4-carbonitrile]
< 100 nM	N#CC1(Cc2cccc(F)c2F)CCN(C(=O)c2cccnc2-c2ccncn2)CC1 [Compound A209, 4-(2,3-difluorobenzyl)-1-(2-(pyrimidin-4-yl)nicotinoyl)piperidine-4-carbonitrile]
< 100 nM	N#CC1(Cc2ccc(F)cc2)CCN(C(=O)c2cc(Cl)ccc2-c2ccncn2)CC1 [Compound A234, 1-(5-chloro-2-(pyrimidin-4-yl)benzoyl)-4-(4-fluorobenzyl)piperidine-4-carbonitrile]
< 100 nM	N#CC1(Cc2ccc(C(F)(F)F)cc2F)CCN(C(=O)c2cccnc2-c2ccncc2)CC1 [Compound A255, 1-([2,4′-bipyridine]-3-carbonyl)-4-(2-fluoro-4-(trifluoromethyl)benzyl)piperidine-4-carbonitrile]
< 100 nM	N#CC1(Cc2cccc3ccccc23)CCN(C(=O)c2cccnc2-c2ccncn2)CC1 [Compound A225, 4-(naphthalen-1-ylmethyl)-1-(2-(pyrimidin-4-yl)nicotinoyl)piperidine-4-carbonitrile]
< 100 nM	Cc1ccc(CC2(C#N)CCN(C(=O)c3cccnc3-c3ccncn3)CC2)cc1 [Compound A35, 4-(4-methylbenzyl)-1-(2-(pyrimidin-4-yl)nicotinoyl)piperidine-4-carbonitrile]
< 100 nM	CC(c1cc(F)cc(F)c1)C1(C#N)CCN(C(=O)c2cccnc2-c2ccncn2)CC1 (stereo in doubt) [Compound A257, (S)-4-(1-(3,5-difluorophenyl)ethyl)-1-(2-(pyrimidin-4-yl)nicotinoyl)piperidine-4-carbonitrile]
< 100 nM	N#CC1(Cc2cccc(C(F)(F)F)c2)CCN(C(=O)c2cccnc2-c2ccncn2)CC1 [Compound A264, 1-(2-(pyrimidin-4-yl)nicotinoyl)-4-(3-(trifluoromethyl)benzyl)piperidine-4-carbonitrile]
< 100 nM	Cc1ccc(CC2(C#N)CCN(C(=O)c3cccnc3-c3ccncn3)CC2)cn1 [Compound A201, 4-((6-methylpyridin-3-yl)methyl)-1-(2-(pyrimidin-4-yl)nicotinoyl)piperidine-4-carbonitrile]
100 to 1000 nM	N#CC1(Cc2ccc(C(F)(F)F)cn2)CCN(C(=O)c2cccnc2-c2ccncn2)CC1 [Compound A228, 1-(2-(pyrimidin-4-yl)nicotinoyl)-4-((5-(trifluoromethyl)pyridin-2-yl)methyl)piperidine-4-carbonitrile]
< 100 nM	N#CC1(Cc2cccc(C(F)(F)F)c2F)CCN(C(=O)c2cccnc2-c2ccncc2)CC1 [Compound A266, 1-([2,4′-bipyridine]-3-carbonyl)-4-(2-fluoro-3-(trifluoromethyl)benzyl)piperidine-4-carbonitrile]
< 100 nM	C[C@H](c1ccc(F)cc1F)C1(C#N)CCN(C(=O)c2cccnc2-c2ccncc2)CC1 [Compound A237, (S)-1-([2,4′-bipyridine]-3-carbonyl)-4-(1-(2,4-difluorophenyl)ethyl)piperidine-4-carbonitrile]
> 1000 nM	N#CC1(Cc2ccc(F)cc2)CCN(C(=O)c2cccnc2-n2cncn2)CC1 [Compound A74, 1-(2-(1H-1,2,4-triazol-1-yl)nicotinoyl)-4-(4-fluorobenzyl)piperidine-4-carbonitrile]

IC50	Structure (SMILES)
< 100 nM	N#CC1(Cc2cc(F)cc(F)c2)CCN(C(=O)c2cccnc2-c2ccncn2)CC1 [Compound A213, 4-(3,5-difluorobenzyl)-1-(2-(pyrimidin-4-yl)nicotinoyl)piperidine-4-carbonitrile]
< 100 nM	N#CC1(Cc2ccc3ccccc3c2)CCN(C(=O)c2cccnc2-c2ccncn2)CC1 [Compound A224, 4-(naphthalen-2-ylmethyl)-1-(2-(pyrimidin-4-yl)nicotinoyl)piperidine-4-carbonitrile]
< 100 nM	N#CC1(Cc2cc(C(F)(F)F)ccc2F)CCN(C(=O)c2cccnc2-c2ccncc2)CC1 [Compound A283, 1-([2,4′-bipyridine]-3-carbonyl)-4-(2-fluoro-5-(trifluoromethyl)benzyl)piperidine-4-carbonitrile]
< 100 nM	C[C@@H](c1ccc(C(F)(F)F)cc1)C1(C#N)CCN(C(=O)c2cccnc2-c2ccncn2)CC1 [Compound A250, (S)-1-(2-(pyrimidin-4-yl)nicotinoyl)-4-(1-(4-(trifluoromethyl)phenyl)ethyl)piperidine-4-carbonitrile]
> 1000 nM	N#CC1(Cc2ccc(F)cc2)CCN(C(=O)c2cccnc2-n2ccnc2)CC1 [Compound A16, 1-(2-(1H-imidazol-1-yl)nicotinoyl)-4-(4-fluorobenzyl)piperidine-4-carbonitrile]
< 100 nM	N#CC1(Cc2ccc(C(F)(F)F)cc2)CCN(C(=O)c2cccnc2-c2ccncn2)CC1 [Compound A40, 1-(2-(pyrimidin-4-yl)nicotinoyl)-4-(4-(trifluoromethyl)benzyl)piperidine-4-carbonitrile]
100 to 1000 nM	CC(C)(O)c1ccc(CC2(C#N)CCN(C(=O)c3cccnc3-c3ccncn3)CC2)cc1 [Compound A223, 4-(4-(2-hydroxypropan-2-yl)benzyl)-1-(2-(pyrimidin-4-yl)nicotinoyl)piperidine-4-carbonitrile]
< 100 nM	N#CC1(Cc2ccc(OC(F)(F)F)cc2)CCN(C(=O)c2cccnc2-c2ccncn2)CC1 [Compound A217, 1-(2-(pyrimidin-4-yl)nicotinoyl)-4-(4-(trifluoromethoxy)benzyl)piperidine-4-carbonitrile]
< 100 nM	N#CC1(Cc2ccc(F)cc2)CCN(C(=O)c2cc(F)ccc2-c2ccncn2)CC1 [Compound A219, 1-(5-fluoro-2-(pyrimidin-4-yl)benzoyl)-4-(4-fluorobenzyl)piperidine-4-carbonitrile]
< 100 nM	C[C@H](c1ccc(C(F)(F)F)cc1)C1(C#N)CCN(C(=O)c2cccnc2-c2ccncn2)CC1 [Compound A251, (R)-1-(2-(pyrimidin-4-yl)nicotinoyl)-4-(1-(4-(trifluoromethyl)phenyl)ethyl)piperidine-4-carbonitrile]
< 100 nM	N#CC1(Cc2ccc(F)cc2C(F)(F)F)CCN(C(=O)c2cccnc2-c2ccncc2)CC1 [Compound A277, 1-([2,4′-bipyridine]-3-carbonyl)-4-(4-fluoro-2-(trifluoromethyl)benzyl)piperidine-4-carbonitrile]
< 100 nM	CC(c1cc(F)cc(F)c1)C1(C#N)CCN(C(=O)c2cccnc2-c2ccncc2)CC1 (stereo in doubt) [Compound A260, (R)-1-([2,4′-bipyridine]-3-carbonyl)-4-(1-(3,5-difluorophenyl)ethyl)piperidine-4-carbonitrile]
< 100 nM	C[C@H](c1c(F)cccc1F)C1(C#N)CCN(C(=O)c2cccnc2-c2ccncn2)CC1 [Compound A243, (S)-4-(1-(2,6-difluorophenyl)ethyl)-1-(2-(pyrimidin-4-yl)nicotinoyl)piperidine-4-carbonitrile]
< 100 nM	N#CC1(Cc2cc(F)cc(F)c2)CCN(C(=O)c2cccnc2-c2ccncc2)CC1 [Compound A70, 1-([2,4′-bipyridine]-3-carbonyl)-4-(3,5-difluorobenzyl)piperidine-4-carbonitrile]
> 1000 nM	N#CC1(Cc2ccc(F)cc2)CCN(C(=O)c2cccnc2-c2cccnc2)CC1 [Compound A18, 1-([2,3′-bipyridine]-3-carbonyl)-4-(4-fluorobenzyl)piperidine-4-carbonitrile]
< 100 nM	C[C@H](c1ccc(F)cc1)C1(C#N)CCN(C(=O)c2cccnc2-c2ccncn2)CC1 [Compound A45, (R)-4-(1-(4-fluorophenyl)ethyl)-1-(2-(pyrimidin-4-yl)nicotinoyl)piperidine-4-carbonitrile]
< 100 nM	C[C@H](c1ccc(C(F)(F)F)cc1F)C1(C#N)CCN(C(=O)c2cccnc2-c2ccncn2)CC1 [Compound A287, (S)-4-(1-(2-fluoro-4-(trifluoromethyl)phenyl)ethyl)-1-(2-(pyrimidin-4-yl)nicotinoyl)piperidine-4-carbonitrile]
